# Data taken from ChEMBL document CHEMBL1201862, “PubChem BioAssay data set” (2004).
#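 Following 48 hours of exposure in 96-well plates, responses at five concentrations were used to interpolate endpoints linearly. GI50 = concentration required for 50% inhibition of growth.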 Activity calls are given as the source filed them. Rule as the data show it: active = GI50 up to about 1.1 µM and inactive = higher.
# How the values were obtained:
# Test in all cases: inhibition of tumour cell growth, NCI panel, 48 h
# SK-MEL-2 = test system: SK-MEL-2
# SR = test system: SR
# OVCAR-5 = test system: OVCAR-5
# M14 = test system: M14
# PC-3 = test system: PC-3
# A549 = test system: A549
# COLO 205 = test system: COLO 205
# DU-145 = test system: DU-145
# BT-549 = test system: BT-549
# SF-268 = test system: SF-268
# MOLT-4 = test system: MOLT-4
# MDA-MB-231 = test system: MDA-MB-231
# TK-10 = test system: TK-10
# MDA-MB-435 = test system: MDA-MB-435
# HL-60 = test system: HL-60
# A498 = test system: A498
# MDA-N = test system: MDA-N
# MCF7 = test system: MCF7
# NCI-H226 = test system: NCI-H226
# NCI-H460 = test system: NCI-H460
# SNB-19 = test system: SNB-19
# HCC 2998 = test system: HCC 2998
# EKVX = test system: EKVX
# NCI-H522 = test system: NCI-H522
# SK-OV-3 = test system: SK-OV-3
# SK-MEL-28 = test system: SK-MEL-28
# SNB-75 = test system: SNB-75
# NCI/ADR-RES = test system: NCI/ADR-RES
# NCI-H23 = test system: NCI-H23
# UO-31 = test system: UO-31
# OVCAR-4 = test system: OVCAR-4
# Hs-578T = test system: Hs-578T
# Malme-3M = test system: Malme-3M
# KM12 = test system: KM12
# 786-0 = test system: 786-0
# SN12C = test system: SN12C
# HT-29 = test system: HT-29
# LOX IMVI = test system: LOX IMVI
# SK-MEL-5 = test system: SK-MEL-5
# SF-539 = test system: SF-539
# RPMI-8226 = test system: RPMI-8226
# HOP-92 = test system: HOP-92
# U-251 = test system: U-251
# SW-620 = test system: SW-620
# UACC-62 = test system: UACC-62
# UACC-257 = test system: UACC-257
# HCT-116 = test system: HCT-116
# OVCAR-8 = test system: OVCAR-8
# CCRF-CEM = test system: CCRF-CEM
# ACHN = test system: ACHN
# HOP-62 = test system: HOP-62
# OVCAR-3 = test system: OVCAR-3
# IGROV-1 = test system: IGROV-1
# T47D = test system: T47D
# SF-295 = test system: SF-295
# HCT-15 = test system: HCT-15
# K562 = test system: K562
# RXF 393 = test system: RXF 393
# CAKI-1 = test system: CAKI-1
compound,measurement,setting,value
Cc1nc2c(nc1C)-c1c(c3c(n1C)C(=O)CCC3)C(=O)C2=O,GI50,SK-MEL-2,571 nM (active)
same,GI50,SR,175 nM (active)
same,GI50,OVCAR-5,953 nM (active)
same,GI50,M14,338 nM (active)
same,GI50,PC-3,1170 nM (inactive)
same,GI50,A549,1300 nM (inactive)
same,GI50,COLO 205,1750 nM (inactive)
same,GI50,DU-145,592 nM (active)
same,GI50,BT-549,25.9 nM (active)
same,GI50,SF-268,295 nM (active)
same,GI50,MOLT-4,312 nM (active)
same,GI50,MDA-MB-231,264 nM (active)
same,GI50,TK-10,2220 nM (inactive)
same,GI50,MDA-MB-435,174 nM (active)
same,GI50,HL-60,232 nM (active)
same,GI50,A498,984 nM (active)
same,GI50,MDA-N,162 nM (active)
same,GI50,MCF7,163 nM (active)
same,GI50,NCI-H226,1410 nM (inactive)
same,GI50,NCI-H460,1230 nM (inactive)
same,GI50,SNB-19,873 nM (active)
same,GI50,HCC 2998,1610 nM (inactive)
same,GI50,EKVX,1060 nM (active)
same,GI50,NCI-H522,434 nM (active)
same,GI50,SK-OV-3,1270 nM (inactive)
same,GI50,SK-MEL-28,622 nM (active)
same,GI50,SNB-75,931 nM (active)
same,GI50,NCI/ADR-RES,547 nM (active)
same,GI50,NCI-H23,743 nM (active)
same,GI50,UO-31,456 nM (active)
same,GI50,OVCAR-4,145 nM (active)
same,GI50,Hs-578T,1420 nM (inactive)
same,GI50,Malme-3M,297 nM (active)
same,GI50,KM12,1450 nM (inactive)
same,GI50,786-0,1390 nM (inactive)
same,GI50,SN12C,216 nM (active)
same,GI50,HT-29,1980 nM (inactive)
same,GI50,LOX IMVI,186 nM (active)
same,GI50,SK-MEL-5,406 nM (active)
same,GI50,SF-539,1220 nM (inactive)
same,GI50,RPMI-8226,194 nM (active)
same,GI50,HOP-92,1290 nM (inactive)
same,GI50,U-251,213 nM (active)
same,GI50,SW-620,214 nM (active)
same,GI50,UACC-62,406 nM (active)
same,GI50,UACC-257,1400 nM (inactive)
same,GI50,HCT-116,249 nM (active)
same,GI50,OVCAR-8,236 nM (active)
same,GI50,CCRF-CEM,219 nM (active)
same,GI50,ACHN,476 nM (active)
same,GI50,HOP-62,885 nM (active)
same,GI50,OVCAR-3,156 nM (active)
same,GI50,IGROV-1,337 nM (active)
same,GI50,T47D,69.7 nM (active)
same,GI50,SF-295,1750 nM (inactive)
same,GI50,HCT-15,334 nM
same,GI50,K562,338 nM (active)
same,GI50,RXF 393,160 nM (active)
COCCOCCOC1=CC(=O)c2c(O)ccc(O)c2C1=O,GI50,SK-MEL-2,1840 nM (inactive)
same,GI50,SR,1190 nM (inactive)
same,GI50,M14,971 nM (active)
same,GI50,PC-3,2480 nM (inactive)
same,GI50,A549,1750 nM (inactive)
same,GI50,COLO 205,296 nM (active)
same,GI50,DU-145,1490 nM (inactive)
same,GI50,BT-549,1790 nM (inactive)
same,GI50,SF-268,2590 nM (inactive)
same,GI50,MOLT-4,2040 nM (inactive)
same,GI50,MDA-MB-231,1490 nM (inactive)
same,GI50,TK-10,2930 nM (inactive)
same,GI50,MDA-MB-435,27.8 nM (active)
same,GI50,HL-60,505 nM (active)
same,GI50,A498,2670 nM (inactive)
same,GI50,MDA-N,153 nM (active)
same,GI50,MCF7,555 nM (active)
same,GI50,NCI-H226,2300 nM (inactive)
same,GI50,NCI-H460,1910 nM (inactive)
same,GI50,SNB-19,1750 nM (inactive)
same,GI50,HCC 2998,1820 nM (inactive)
same,GI50,EKVX,2860 nM (inactive)
same,GI50,NCI-H522,1570 nM (inactive)
same,GI50,SK-OV-3,> 10000 nM (inactive)
same,GI50,SK-MEL-28,1540 nM (inactive)
same,GI50,SNB-75,1820 nM (inactive)
same,GI50,NCI/ADR-RES,1960 nM (inactive)
same,GI50,NCI-H23,1690 nM (inactive)
same,GI50,UO-31,1620 nM (inactive)
same,GI50,OVCAR-4,1730 nM (inactive)
same,GI50,Hs-578T,2470 nM (inactive)
same,GI50,Malme-3M,149 nM (active)
same,GI50,KM12,1830 nM (inactive)
same,GI50,786-0,1800 nM (inactive)
same,GI50,SN12C,1960 nM (inactive)
same,GI50,HT-29,518 nM (active)
same,GI50,LOX IMVI,1520 nM (inactive)
same,GI50,SK-MEL-5,173 nM (active)
same,GI50,SF-539,2070 nM (inactive)
same,GI50,RPMI-8226,1370 nM (inactive)
same,GI50,HOP-92,2180 nM (inactive)
same,GI50,SW-620,571 nM (active)
same,GI50,UACC-62,1450 nM (inactive)
same,GI50,CAKI-1,729 nM (active)
same,GI50,UACC-257,397 nM (active)
same,GI50,HCT-116,307 nM (active)
same,GI50,CCRF-CEM,1410 nM (inactive)
same,GI50,ACHN,1610 nM (inactive)
same,GI50,HOP-62,1710 nM (inactive)
same,GI50,OVCAR-3,1440 nM (inactive)
same,GI50,IGROV-1,1820 nM (inactive)
same,GI50,T47D,1820 nM (inactive)
same,GI50,SF-295,1820 nM (inactive)
same,GI50,K562,671 nM (active)
same,GI50,RXF 393,2070 nM (inactive)
